The record followed here is US20250144054A1, “SMALL MOLECULE STAT3 INHIBITOR FOR TREATING TRIPLE NEGATIVE BREAST CANCER” (UNIVERSITY OF MARYLAND, BALTIMORE, priority 2022, published 2025).

Several values for one entry are separate records, joined by “and”; a condition that tells them apart may be missing. Equal values may be shown once.

This test deals with STAT3. Nature of the test: Western blot of P-STAT3 (Y705), STAT3, Cyclin D1, Cleaved Caspase-3 in MDA-MB-231 cells. Type of test: cell-based, human. Particulars: MDA-MB-231, overnight. Here is the method: (A) MDA-MB-231, SUM159, and 4T1 cell lines were treated with DMSO or LLL12B overnight and the expression levels of P-STAT3 (Y705), STAT3, Cyclin D1, and Cleaved Caspase-3 were analyzed by Western blot. GAPDH served as a protein loading control. (B) MDA-MB-231 cells were treated with DMSO or C188-9 overnight and the expression levels of P-STAT3 (Y705), STAT3, Cyclin D1, and Cleaved Caspase-3 were analyzed by Western blot. (C) MDA-MB-231, SUM159, and 4T1 cells were seeded in a 96-well plate and treated with DMSO or LLL12B for 5 hours and a Caspase-3/7 Fluorescence Assay Kit was used to detect the activation of caspase-3/7. (D) MDA-MB-231, SUM159, and 4T1 cell lines were treated with DMSO or LLL12B for 8-12 hours, and flow cytometry was performed to analyze annexin V and PI staining. The quantification of apoptotic cells was shown in the right panel. ** P<0.01, *** P<0.001 and ****P<0.0001.
SiRNA and transfection. STAT3 siRNA and Negative Control siRNA (Cell Signaling Technology, Danvers, MA, USA) were used to knock down STAT3 in MDA-MB-231, SUM159, and 4T1 cell lines. Cells were transfected with STAT3 siRNA or Negative Control siRNA using Lipofectamine RNAiMAX (Invitrogen, Carlsbad, CA, USA) according to the manufacturer's instructions. After 72 hours, cell viability was examined by MTT cell viability assay, and the transfection efficiency was examined by western blot.
Western blot. Cells were collected and total protein was extracted using cell lysis buffer (Cell Signaling Technology, Danvers, MA, USA). Protein concentration was determined using the Pierce BCA Protein Assay Kit (Thermo Fisher Scientific, Waltham, MA, USA) according to the manufacturer's instructions. Equal amounts of protein were separated by 10% SDS-PAGE gels and transferred to PVDF membranes. Membranes were blocked in 5% non-fat milk at room temperature and probed with specific antibodies P-STAT3 (Y705), STAT3, Cyclin D1, Cleaved Caspase-3, P-STAT1 (Y701), STAT1, P-ERK, ERK or GAPDH (1:1000, Cell Signaling Technology, Danvers, MA, USA) at 4° C. overnight. The blots were visualized using SuperSignal™ West Femto Maximum Sensitivity Substrate (Thermo Fisher Scientific, Waltham, MA, USA) and an Amersham Imager 680 (GE Healthcare Life Sciences, Marlborough, MA, USA) after incubating with horseradish peroxidase (HRP)-conjugated anti-rabbit secondary antibody (1:5000, Cell Signaling Technology, Danvers, MA, USA).
(A western blot detects proteins with antibodies after separation by electrophoresis.)

For the compound `COc1ccc(S(=O)(=O)Nc2cc(-c3c(O)ccc4ccccc34)c(O)c3ccccc23)cc1` [C188-9, reference compound], the “concentration that inhibited P-STAT3 and Cyclin D1 in Western blot” value is 25 µM and 50 µM.
